Source: patent US20240199645A1, “POLYMORPHIC FORMS OF (S)-12-FLUORO-4-(1-METHYL-1H-PYRAZOL-5-YL)-7A,8,13,14-TETRAHYDRO-7H-[1,2,4]TRIAZOLO[4',3':1,6]PYRIDO[3,2-B]BENZOFURO[4,3-FG][1,4]OXAZONINE” (Fulcrum Therapeutics, Inc., priority 2021, published 2024)

Assay: Dynamic vapor sorption (DVS) analysis
Format: physicochemical
Details: between about 2 to about 92% relative humidity (RH); at 25° C.
Procedure: Dynamic vapor sorption (DVS) analysis was performed using a DVS Intrinsic 1. The sample (25 mg) was loaded into a sample pan, suspended from a microbalance and exposed to a humidified stream of nitrogen gas. The sample was held for a minimum of 5 min at each level and only progressed to the next humidity level if there was <0.002% change in weight between measurements (interval: 60 seconds) or 240 min had elapsed.

Row | Compound | dynamic vapor sorption (DVS) profile, mass change | DVS mass change expressed as equivalents of water
1 | Cn1nccc1-c1cc2c(n3cnnc13)NCc1c(F)ccc3c1C(CO3)CO2 (stereo in doubt) [Form U, (S)-12-fluoro-4-(1-methyl-1H-pyrazol-5-yl)-7a,8,13,14-tetrahydro-7H-[1,2,4]triazolo[4′,3′:1,6]pyrido[3,2-b]benzofuro[4,3-fg][1,4]oxazonine] | about 0.38 wt. % | –
2 | Cn1nccc1-c1cc2c(n3cnnc13)NCc1c(F)ccc3c1C(CO3)CO2 (stereo in doubt) [Form E, (S)-12-fluoro-4-(1-methyl-1H-pyrazol-5-yl)-7a,8,13,14-tetrahydro-7H-[1,2,4]triazolo[4′,3′:1,6]pyrido[3,2-b]benzofuro[4,3-fg][1,4]oxazonine] | about 0.23 wt. % | –
3 | Cn1nccc1-c1cc2c(n3cnnc13)NCc1c(F)ccc3c1C(CO3)CO2 (stereo in doubt) [Form A, (S)-12-fluoro-4-(1-methyl-1H-pyrazol-5-yl)-7a,8,13,14-tetrahydro-7H-[1,2,4]triazolo[4′,3′:1,6]pyrido[3,2-b]benzofuro[4,3-fg][1,4]oxazonine] | about 6.34 wt. % | about 1.48 eq. water
